According to PubChem BioAssay (NCI):
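Briefly, cells in 96-well plates were exposed to five compound concentrations for 48 h, and endpoints were estimated by linear interpolation. Definition used: TGI = concentration required for complete inhibition of growth.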

Key:
Test in all cases: DTP human tumour cell line panel, 48 h
CAKI-1 renal = test system: CAKI-1 renal
SK-MEL-2 melanoma = test system: SK-MEL-2 melanoma
LOX IMVI melanoma = test system: LOX IMVI melanoma
SNB-75 CNS = test system: SNB-75 CNS
BT-549 breast = test system: BT-549 breast
T-47D breast = test system: T-47D breast
NCI-H522 lung = test system: NCI-H522 lung
HS 578T breast = test system: HS 578T breast
IGROV1 ovarian = test system: IGROV1 ovarian
SK-OV-3 ovarian = test system: SK-OV-3 ovarian
KM12 colon = test system: KM12 colon
UACC-257 melanoma = test system: UACC-257 melanoma
NCI-H23 lung = test system: NCI-H23 lung
UO-31 renal = test system: UO-31 renal
SK-MEL-28 melanoma = test system: SK-MEL-28 melanoma
M14 melanoma = test system: M14 melanoma
A498 renal = test system: A498 renal
HOP-62 NSCLC = test system: HOP-62 NSCLC
UACC-62 melanoma = test system: UACC-62 melanoma
HCT-15 colon = test system: HCT-15 colon
MCF7 breast = test system: MCF7 breast
OVCAR-4 ovarian = test system: OVCAR-4 ovarian
HCC-2998 colon = test system: HCC-2998 colon
786-0 renal = test system: 786-0 renal
MALME-3M melanoma = test system: MALME-3M melanoma
NCI-H460 lung = test system: NCI-H460 lung
A549 NSCLC = test system: A549 NSCLC
SK-MEL-5 melanoma = test system: SK-MEL-5 melanoma
SW-620 colon = test system: SW-620 colon
OVCAR-3 ovarian = test system: OVCAR-3 ovarian
U251 CNS = test system: U251 CNS
RPMI-8226 leukemia = test system: RPMI-8226 leukemia
SN12C renal = test system: SN12C renal
EKVX NSCLC = test system: EKVX NSCLC
OVCAR-8 ovarian = test system: OVCAR-8 ovarian
MOLT-4 leukemia = test system: MOLT-4 leukemia
NCI/ADR-RES ovarian = test system: NCI/ADR-RES ovarian
RXF 393 renal = test system: RXF 393 renal
SF-295 CNS = test system: SF-295 CNS
SF-268 CNS = test system: SF-268 CNS
COLO 205 colon = test system: COLO 205 colon
OVCAR-5 ovarian = test system: OVCAR-5 ovarian
PC-3 prostate = test system: PC-3 prostate
SF-539 CNS = test system: SF-539 CNS
MDA-MB-435 = test system: MDA-MB-435
ACHN renal = test system: ACHN renal
SNB-19 CNS = test system: SNB-19 CNS
HL-60(TB) leukemia = test system: HL-60(TB) leukemia
TK-10 renal = test system: TK-10 renal
DU-145 prostate = test system: DU-145 prostate
MDA-MB-231 breast = test system: MDA-MB-231 breast
CCRF-CEM leukemia = test system: CCRF-CEM leukemia
MDA-N = test system: MDA-N
HT29 colon = test system: HT29 colon
K-562 leukemia = test system: K-562 leukemia
HCT-116 colon = test system: HCT-116 colon
HOP-92 NSCLC = test system: HOP-92 NSCLC
NCI-H226 lung = test system: NCI-H226 lung
SR leukemia = test system: SR leukemia

## O=C1/C(=C\c2cccc(Oc3ccccc3)c2)SC(c2ccccc2)N1c1cc(Cl)ccc1Cl (stereo not given)
CAKI-1 renal
  TGI: > 100 µM
SK-MEL-2 melanoma
  TGI: > 100 µM
LOX IMVI melanoma
  TGI: 38.2 µM
SNB-75 CNS
  TGI: > 100 µM
BT-549 breast
  TGI: > 100 µM
T-47D breast
  TGI: > 100 µM
NCI-H522 lung
  TGI: 53 µM
HS 578T breast
  TGI: 75.9 µM
IGROV1 ovarian
  TGI: > 100 µM
SK-OV-3 ovarian
  TGI: > 100 µM
KM12 colon
  TGI: > 100 µM
UACC-257 melanoma
  TGI: > 100 µM
NCI-H23 lung
  TGI: > 100 µM
UO-31 renal
  TGI: > 100 µM
SK-MEL-28 melanoma
  TGI: > 100 µM
M14 melanoma
  TGI: 84.4 µM
A498 renal
  TGI: > 100 µM
HOP-62 NSCLC
  TGI: > 100 µM
UACC-62 melanoma
  TGI: > 100 µM
HCT-15 colon
  TGI: > 100 µM
MCF7 breast
  TGI: > 100 µM
OVCAR-4 ovarian
  TGI: > 100 µM
HCC-2998 colon
  TGI: > 100 µM
786-0 renal
  TGI: 76.5 µM
MALME-3M melanoma
  TGI: 89.7 µM
NCI-H460 lung
  TGI: > 100 µM
A549 NSCLC
  TGI: > 100 µM
SK-MEL-5 melanoma
  TGI: > 100 µM
SW-620 colon
  TGI: 41.6 µM
OVCAR-3 ovarian
  TGI: 77.4 µM
U251 CNS
  TGI: > 100 µM
RPMI-8226 leukemia
  TGI: 98.7 µM
SN12C renal
  TGI: 48.9 µM
EKVX NSCLC
  TGI: > 100 µM
OVCAR-8 ovarian
  TGI: 57 µM
MOLT-4 leukemia
  TGI: > 100 µM
NCI/ADR-RES ovarian
  TGI: > 100 µM
RXF 393 renal
  TGI: 76.5 µM
SF-295 CNS
  TGI: > 100 µM
SF-268 CNS
  TGI: 58.6 µM
COLO 205 colon
  TGI: > 100 µM
OVCAR-5 ovarian
  TGI: > 100 µM
PC-3 prostate
  TGI: > 100 µM
SF-539 CNS
  TGI: 88.5 µM
MDA-MB-435
  TGI: > 100 µM
ACHN renal
  TGI: > 100 µM
SNB-19 CNS
  TGI: > 100 µM
HL-60(TB) leukemia
  TGI: 48.1 µM
TK-10 renal
  TGI: > 100 µM
DU-145 prostate
  TGI: > 100 µM
MDA-MB-231 breast
  TGI: > 100 µM
CCRF-CEM leukemia
  TGI: 3.62 µM
MDA-N
  TGI: 45.5 µM
HT29 colon
  TGI: > 100 µM
K-562 leukemia
  TGI: > 100 µM
HCT-116 colon
  TGI: 52.7 µM
HOP-92 NSCLC
  TGI: 74.4 µM

## O=S(Nc1ccccc1)c1ccc(Cl)cc1 (stereo not given)
CAKI-1 renal
  TGI: > 100 µM
SK-MEL-2 melanoma
  TGI: > 100 µM
LOX IMVI melanoma
  TGI: > 100 µM
BT-549 breast
  TGI: > 100 µM
T-47D breast
  TGI: > 100 µM
NCI-H522 lung
  TGI: > 100 µM
HS 578T breast
  TGI: > 100 µM
IGROV1 ovarian
  TGI: > 100 µM
NCI-H226 lung
  TGI: > 100 µM
KM12 colon
  TGI: 59.9 µM
UACC-257 melanoma
  TGI: > 100 µM
NCI-H23 lung
  TGI: > 100 µM
UO-31 renal
  TGI: > 100 µM
SK-MEL-28 melanoma
  TGI: > 100 µM
M14 melanoma
  TGI: > 100 µM
HOP-62 NSCLC
  TGI: > 100 µM
UACC-62 melanoma
  TGI: 90 µM
HCT-15 colon
  TGI: > 100 µM
MCF7 breast
  TGI: > 100 µM
OVCAR-4 ovarian
  TGI: > 100 µM
HCC-2998 colon
  TGI: > 100 µM
786-0 renal
  TGI: > 100 µM
MALME-3M melanoma
  TGI: > 100 µM
NCI-H460 lung
  TGI: > 100 µM
A549 NSCLC
  TGI: > 100 µM
SK-MEL-5 melanoma
  TGI: > 100 µM
SW-620 colon
  TGI: > 100 µM
OVCAR-3 ovarian
  TGI: > 100 µM
U251 CNS
  TGI: > 100 µM
RPMI-8226 leukemia
  TGI: > 100 µM
SN12C renal
  TGI: > 100 µM
EKVX NSCLC
  TGI: > 100 µM
OVCAR-8 ovarian
  TGI: > 100 µM
MOLT-4 leukemia
  TGI: > 100 µM
NCI/ADR-RES ovarian
  TGI: > 100 µM
SF-295 CNS
  TGI: > 100 µM
SF-268 CNS
  TGI: 82.9 µM
COLO 205 colon
  TGI: > 100 µM
OVCAR-5 ovarian
  TGI: > 100 µM
SF-539 CNS
  TGI: 46.7 µM
MDA-MB-435
  TGI: > 100 µM
ACHN renal
  TGI: > 100 µM
SNB-19 CNS
  TGI: > 100 µM
HL-60(TB) leukemia
  TGI: > 100 µM
TK-10 renal
  TGI: > 100 µM
DU-145 prostate
  TGI: > 100 µM
MDA-MB-231 breast
  TGI: > 100 µM
CCRF-CEM leukemia
  TGI: > 100 µM
MDA-N
  TGI: > 100 µM
HT29 colon
  TGI: > 100 µM
K-562 leukemia
  TGI: > 100 µM
HCT-116 colon
  TGI: > 100 µM
SR leukemia
  TGI: > 100 µM
